According to patent US9169279B2, “Crystallization method and bioavailability” (THAR PHARMACEUTICALS, INC., priority 2009, dated 2015):

Key:
[1] = room temperature
[2] = Dog PK study: zoledronic acid in serum after IV or oral capsule dosing, enteric or non-enteric coated, with or without excess coformer (LC/MS/MS); type: in vivo, Beagle dogs; conditions: beagle, po, 56 mg, Leg 7, 56.0 mg, enteric coated capsule, PO, read-out: Average serum concentration of 5 dogs
Source text: This can be attributed to the fact that both animals have historically been used in the safety evaluation and PK screening studies and are recommended by appropriate regulatory agencies. […] Additional tests included ID administration in rats and administration of enteric coated capsules in dogs.
USA. Some animals have surgical catheters (jugular vein and intraduodenum) were implanted to the animals prior to the studies. Beagle dogs from Marshall Farms, N.Y., USA, weighing from (9-12 kg) were used in the studies presented herein. Surgical catheters (jugular vein) were implanted prior to the studies.
The dose volume of each dog was adjusted based upon the average weight of the dog. • ii. […]
Blood samples were placed without the use of an anticoagulant and allowed to sit at room temperature for approximately 30 minutes. Samples were then centrifuged at a temperature of 4° C., at a speed of 13,000 rpm, for 5 minutes. Serum was collected and split into two aliquots and stored frozen (−80° C.) until analysis.
In this study, capsules of particulate materials (zoledronic:DL-lysine:water complex and excess pure DL-lysine).

O.O=P(O)(O)C(O)(Cn1ccnc1)P(=O)(O)O [ZA monohydrate]
Aqueous solubility, Conc. mg/mL [1]: 1.57 mg/mL

NCCCCC(N)C(=O)O.O.O.O=P(O)(O)C(O)(Cn1ccnc1)P(=O)(O)O [ZA: DL-Lysine dihydrate]
Aqueous solubility, Conc. mg/mL [1]: 6.85 mg/mL

NCCCCC(N)C(=O)O.O.O=P(O)(O)C(O)(Cn1ccnc1)P(=O)(O)O [ZA: DL-Lysine monohydrate]
Aqueous solubility, Conc. mg/mL [1]: 13.9 mg/mL

NCCCC[C@H](N)C(=O)O.O.O.O=P(O)(O)C(O)(Cn1ccnc1)P(=O)(O)O [ZA: L-Lysine dihydrate]
Aqueous solubility, Conc. mg/mL [1]: 8.22 mg/mL

O=P(O)(O)C(O)(Cn1ccnc1)P(=O)(O)O [Zoledronic acid monohydrate]
concentration at 0 h ([2]; 0 h): 0 ng/mL
concentration at 10 min ([2]; 10 min): 0 ng/mL
concentration at 0.25 h ([2]; 0.25 h): 0 ng/mL
concentration at 0.5 h ([2]; 0.5 h): 0 ng/mL
concentration at 0.75 h ([2]; 0.75 h): 0 ng/mL
concentration at 1 h ([2]; 1 h): 9.84 ng/mL
concentration at 1.5 h ([2]; 1.5 h): 86.1 ng/mL
concentration at 2 h ([2]; 2 h): 109 ng/mL
concentration at 4 h ([2]; 4 h): 108 ng/mL
concentration at 6 h ([2]; 6 h): 14.2 ng/mL
concentration at 8 h ([2]; 8 h): 4.57 ng/mL
concentration at 24 h ([2]; 24 h): 0.5 ng/mL
